Assay results reported in patent US20210030719A1, “GRP94 INHIBITORS TO TREAT STEROID-INDUCED OCULAR HYPERTENSIONS AND GLAUCOMAS” (UNIVERSITY OF SOUTH FLORIDA, priority 2018, published 2021).

Legend:
[1] = test system: human trabecular meshwork (HTM) cells; assay: HTM cell lysates, intracellular Collagen I and Fibronectin (Western blot); type: cell-based
Protocol: (§1) HTM Treatments: Low passage number human trabecular meshwork (HTM) cells were cultured in DMEM supplemented with 10% fetal bovine serum and 1% penicillin/streptomycin. HTM cells were treated for 10 days (replaced every 2-3 days) with 100 nM dexamethasone. HTM cells were validated by expression of myocilin under these conditions.
(§2) Western and Dot Blots: Anterior eye segments and HTM cells were lysed in RIPA buffer. HTM lysates were separated by SDS-PAGE and transferred to a PVDF membrane. Lysates and culture media for dot blots were applied to a nitrocellulose membrane. Blots were blocked in 7% non-fat milk solution. Myocilin antibody was provided by W. D. Stamer. Collagen I and Fibronectin antibodies were purchased from Santa Cruz Biotechnology. Actin antibody was purchased from Sigma Aldrich (St. Louis, Mo.). Blots were developed using species specific secondary antibodies from Southern Biotech.
(§3) Quantification and Statistical Analysis: Two-tailed student's t-test and two-way ANOVA with Bonferroni's post-hoc tests were used as detailed in the figure legends. Values were considered significant if p<0.05. Graphs were generated using GraphPad Prism 5.0 analysis software or Microsoft Excel. N-value in this study is depicted as number of animals or number of eyes where indicated. Graphs are plotted as ±SEM or % CV as indicated.

[2] = test system: ECM components (Collagen I, Fibronectin); assay: ECM components in lysates of anterior eye sections of SIG model mice (dot blot / Western blot); type: in vivo, mouse; settings: dex & 4Br-BnIm treated group; overall not statistically significant
Text: Animal Husbandry: Mice were housed and bred at the University of South Florida Byrd Alzheimer's Institute. All animal procedures performed in this study followed the ARVO Statement for the Use of Animals in Ophthalmic and Vision Research and were approved by the University of South Florida Institutional Animal Care and Use Committee. A cohort of 35 animals from separate litters were used for this study; 20 male mice (10 WT and 10 Myoc-KO) and 15 female mice (8 WT and 7 Myoc-KO). […] Technicians performing the drug delivery and tonometry measurements were blinded for animal genotype as well as each compound and the respective vehicle treatment. […] No other treatment groups or geneotypes suffered losses. One WT animal on the Dex+4Br—BnIm study began the study with only one eye. […] 4Br—BnIm treatment dose was based on previous studies. […] The drop was allowed to sit on the eye for 1 minute before the mouse was returned to its cage. One drop of 0.1% Dexamethasone eye drops (Dexamethasone Sodium Phosphate Ophthalmic Solution USP, 0.1% Dexamethasone Phosphate Equivalent; Bauch and Lomb) or PBS (vehicle) was applied to each eye. Dexamethasone treatments were conducted at 6:30 AM, 9 AM, and 2 PM, every day. […]
Quantification and Statistical Analysis: Two-tailed student's t-test and two-way ANOVA with Bonferroni's post-hoc tests were used as detailed in the figure legends. […]

mutant myocilin = assay: Cellular studies of mutant myocilin degradation; type: cell-based
[3] = test system: human trabecular meshwork (HTM) cells; assay: HTM cell culture medium, extracellular proteins (dot blot); type: cell-based; settings: dexamethasone
Protocol: as §1, §2, §3

Wild-type (WT) mice = assay: Mouse model of steroid-induced glaucoma, IOP by rebound tonometer, WT mice; type: in vivo; settings: 0.1% dexamethasone topically to the eye three times per day
Protocol: A cohort of 35 animals from separate litters were used for this study; 20 male mice (10 WT and 10 Myoc-KO) and 15 female mice (8 WT and 7 Myoc-KO). […] Technicians performing the drug delivery and tonometry measurements were blinded for animal genotype as well as each compound and the respective vehicle treatment. […] The drop was allowed to sit on the eye for 1 minute before the mouse was returned to its cage. One drop of 0.1% Dexamethasone eye drops (Dexamethasone Sodium Phosphate Ophthalmic Solution USP, 0.1% Dexamethasone Phosphate Equivalent; Bauch and Lomb) or PBS (vehicle) was applied to each eye. Dexamethasone treatments were conducted at 6:30 AM, 9 AM, and 2 PM, every day.
IOP Measurements: IOP levels in the mouse eye were obtained using the Icare TonoLab rebound tonometer and their guidelines were followed (Icare, Finland). Measurements were taken at LOAM to control for diurnal fluctuations in IOP levels which occur throughout the day. Mice were anesthetized with 3-4% isoflurane in oxygen once a week. After mice were sufficiently anesthetized, the mice were placed in an open restraint platform and IOP measurements were taken for each eye. […]

[4] = HTM cells treated with dex, 24 hours after Grp94 inhibitor treatment
[5] = HTM cells, 4Br-BnIm in the absence of dexamethasone

| SMILES | intracellular Collagen I levels [1, 4] | intracellular Fibronectin levels [1, 4] | Intracellular Collagen I [1, 5] | Intracellular Fibronectin [1, 5] | Collagen I in anterior eye lysates [2] | Fibronectin in anterior eye lysates [2] | effect on toxic mutant myocilin (mutant myocilin) | increase of extracellular myocilin [3] | increase in IOP (Wild-type (WT) mice) |
| --- | --- | --- | --- | --- | --- | --- | --- | --- | --- |
| COC(=O)c1c(O)cc(O)c(Cl)c1CCc1nccn1Cc1ccc(Br)cc1 [4Br—BnIm, methyl 2-(2-(1(4-bromobenzyl)-1H-imidazol-2-yl)ethyl)-3-chloro-4,6-dihydroxybenzoate] | statistically significant decreases | statistically significant decreases | unchanged | unchanged | decrease in the mean values | decrease in the mean values | degradation of toxic mutant myocilin | – | – |
| C[C@@H]1C[C@H]2[C@@H]3CCC4=CC(=O)C=C[C@]4(C)[C@@]3(F)[C@@H](O)C[C@]2(C)[C@@]1(O)C(=O)CO [dexamethasone] | – | – | – | – | – | – | – | over 500% | roughly 33% |
